The source of these data is US11149267B2, “Functional genomics using CRISPR-Cas systems, compositions, methods, screens and applications thereof” (The Broad Institute, Inc., priority 2013, dated 2021).

A short description of series [1]: Dosing of screening agents, CellTiter-Glo cell viability assay. Format: cell-based. The following applies: human, WT KBM7 cells. How it is done:
(§1) Dosing of screening agents: To determine the appropriate dose of 6-TG and etoposide for screening in KBM7 and HL60 cells, cells were seeded in 96-well tissue culture plates at 4000 cells/well in 200 μL of media and were treated in triplicate with varying concentrations of 6-TG and etoposide. A CellTiter-Glo cell viability assay was performed after 4 days to assess drug toxicity. Concentrations at which the viability of WT KBM7 and HL60 cells fell below 5% were chosen.
Pooled screening: In all screens, 90 million target cells were transduced with viral sub pools and selected with blasticidin 24 hours after infection for 3 days. For the 6-TG screen, Cas9-KBM7 cells were cultured in media containing 400 nM 6-TG. For screens with etoposide, Cas9-KBM7 and Cas9-HL60 cells were cultured in media containing 130 nM and 200 nM of etoposide, respectively. Cultures of untreated Cas9-KBM7 and Cas9-HL60 cells were also maintained in parallel. All cells were passaged every 3 days, and after 12 days, cells were harvested for genomic DNA extraction. In negative selection screens, 10 million cells were harvested for genomic DNA extraction 24 hours after infection. The remaining cells were maintained for 12 doublings, before being harvested for genomic DNA extraction.

Series [2] in a line: CellTiter-Glo cell viability assay in HL60 cells. Format: cell-based, human. The following applies: human, WT HL60 cells; at the concentration chosen for screening (200 nM etoposide); 4 days. How it is done:
(§2) Viability assay: Cells were seeded in 96-well tissue culture plates at 4000 cells/well in 200 μL of media under various treatment conditions. After 3 days, 35 μL of CellTiter-Glo reagent (Promega) was added to each well, mixed for 5 minutes, and the luminescence was read on the SpectraMax M5 Luminometer (Molecular Devices). All experiments were performed in triplicate.
as §1
(§3) Pooled screening: In all screens, 90 million target cells were transduced with viral sub pools and selected with blasticidin 24 hours after infection for 3 days. For the 6-TG screen, Cas9-KBM7 cells were cultured in media containing 400 nM 6-TG. For screens with etoposide, Cas9-KBM7 and Cas9-HL60 cells were cultured in media containing 130 nM and 200 nM of etoposide, respectively. Cultures of untreated Cas9-KBM7 and Cas9-HL60 cells were also maintained in parallel. […]
In general terms: Cellular ATP, detected with luciferase, serves as a proxy for viable cell number.

The subject of a further series is HL60 cells. Description: CellTiter-Glo cell viability assay in HL60 cells. The conditions noted are these: versus parental or sgAAVS1-modified HL60 cells; viability by cellular ATP. Format: cell-based, human. How it is done: as §2, §1, §3

Turning to `Nc1nc2nc[nH]c2c(=S)[nH]1` [6-TG, 6-thioguanine], in series [1] (at the concentration chosen for screening (400 nM 6-TG)), the viability at 4 days, 400 nM is < 5%.

For `COc1cc([C@@H]2c3cc4c(cc3[C@@H](O[C@@H]3O[C@@H]5CO[C@@H](C)O[C@H]5[C@H](O)[C@H]3O)[C@H]3COC(=O)[C@H]23)OCO4)cc(OC)c1O` [etoposide], the viability at 4 days, 130 nM in series [1] (at the concentration chosen for screening (130 nM etoposide)) is < 5%. Also, the viability at 4 days, 200 nM in series [2] is < 5%. The “resistance to etoposide of isogenic HL60 lines with sgRNAs against TOP2A and CDK6” value in the series with HL60 cells is reported as “much more resistant”.

The viability is a per cent measure of how many cells are alive, often set against a control. The low end stands for more harm to the cells, the high end for less harm to the cells.
